Bridge positions count the residues as written; N and C are the ends. Ends that are not written are not given here.
T1: membrane-bound guanylyl cyclase (Rattus norvegicus, UniProt P18910)
T1 construct: from tissue; host or cells: lung of Wistar rats (membrane preparation)
T1 sequence (P18910 29-1057): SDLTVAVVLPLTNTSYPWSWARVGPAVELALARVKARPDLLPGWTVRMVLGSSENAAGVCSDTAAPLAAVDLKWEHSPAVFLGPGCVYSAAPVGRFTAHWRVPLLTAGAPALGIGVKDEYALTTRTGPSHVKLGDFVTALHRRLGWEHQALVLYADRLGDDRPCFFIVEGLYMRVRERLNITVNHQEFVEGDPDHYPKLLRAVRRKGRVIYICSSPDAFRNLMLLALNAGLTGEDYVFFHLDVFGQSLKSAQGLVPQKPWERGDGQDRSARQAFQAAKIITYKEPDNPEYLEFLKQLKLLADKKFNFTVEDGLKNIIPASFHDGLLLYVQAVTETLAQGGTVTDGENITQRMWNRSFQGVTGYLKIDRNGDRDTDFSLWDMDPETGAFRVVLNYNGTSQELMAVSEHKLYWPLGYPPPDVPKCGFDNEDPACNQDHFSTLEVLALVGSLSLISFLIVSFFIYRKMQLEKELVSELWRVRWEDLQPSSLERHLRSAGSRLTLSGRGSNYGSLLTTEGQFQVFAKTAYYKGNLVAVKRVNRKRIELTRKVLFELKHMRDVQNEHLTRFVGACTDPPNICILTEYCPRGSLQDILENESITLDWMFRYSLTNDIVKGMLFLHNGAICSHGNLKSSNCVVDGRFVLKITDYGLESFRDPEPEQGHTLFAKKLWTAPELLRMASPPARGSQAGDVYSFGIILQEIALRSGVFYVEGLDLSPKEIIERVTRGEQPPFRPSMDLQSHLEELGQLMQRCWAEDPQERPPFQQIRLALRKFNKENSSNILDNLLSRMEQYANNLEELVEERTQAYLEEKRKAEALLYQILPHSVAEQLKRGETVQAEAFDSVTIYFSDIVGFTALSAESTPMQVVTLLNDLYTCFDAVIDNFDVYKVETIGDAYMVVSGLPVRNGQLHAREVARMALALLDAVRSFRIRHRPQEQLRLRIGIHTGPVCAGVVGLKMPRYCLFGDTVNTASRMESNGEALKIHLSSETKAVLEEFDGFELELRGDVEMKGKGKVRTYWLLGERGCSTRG

T2: membrane-bound guanylyl cyclase isolated from the lung of Wistar rats (rat, UniProt P18910 29-1057)
T2 sequence (looked up): T1 sequence (P18910 29-1057)

B1: ANP-45 (variant) (peptide)
peptide: SLRRSSCFGGRMDRIGAQSGLGCNSFRELNWLRPLMEQPLLSLME
modifications: disulfide 7-23
B2: ANP-49 (variant) (peptide)
peptide: TAPRSLRRSSCFGGRMDRIGAQSGLGCNSFRELNWLRPLMEQPLLSLME
modifications: disulfide 11-27

How the values were obtained:
[1] = test system: spontaneously hypertensive rats (SHR); assay: Renal and cardiovascular effects in anesthetized spontaneously hypertensive rats, 30-min intravenous infusion; type: in vivo, rat; details: for heart rate change: i.v. 30-min infusion
Protocol: The assay was performed with anesthetized spontaneously hypertensive rats (SHR) following intravenous administration of the various ANP-proteins by a 30-min infusion.
Male Wistar-Okamoto derived spontaneously hypertensive rats (SHR) provided by National Laboratory Animal Center were used. Space allocation for 6 rats was 45×23×15 cm. All animals were maintained in a controlled temperature (23° C.-24° C.) and humidity (60%-70%) environment with 12 hours light dark cycles for at least one week in MDS Pharma Services—Taiwan Laboratory prior to use. Free access to standard lab chow (Laboratory Rodent Diet MF-18; Oriental Yeast Co., Ltd. Japan) and RO water was granted. All aspects of this work including housing, experimentation and disposal of animals were performed in general accordance with the Guide for the Care and Use of Laboratory Animals (National Academy Press, Washington, D.C., 1996).
Groups of 5 male rats (SHR) weighing 250-300 g were employed. Rats were anaesthetized with Inactin (120 mg/kg i.p.). The left carotid artery, jugular vein, and bladder were cannulated with polyethylene (PE50) catheters. The arterial cannula was connected via a Statham (P 23×L) pressure transducer to a NEC/San-Ei Type 366 polygraph for direct mean arterial blood pressure measurements. Heart rate was derived from pulse pressure signals and monitored on a Data Acquisition and Analytic System (Power Lab 8/SP, AD Instruments, Australia). The body temperature was kept at 37° C. using a thermostat-controlled hot plate. The animals were primed with 1 ml 2.5% dextrose+0.45% NaCl intravenously, followed by continuous infusion of the same solution at a rate of 2.4 ml/hr with an infusion pump throughout the experiments. After an equilibration period of 30 min, a 30-min control urine sample was collected. Test compounds were dissolved in 2.5% dextrose+0.45% NaCl and delivered by infusion for 30 min at 2.4 ml/hr. […] The infusion rate was 2.4 ml/hr. Urine samples were collected through the catheter during infusion of peptides and in the two 30-min post-peptide periods. Urinary Na^+ concentration was measured with an atomic absorption spectrometer. All values represent mean±SEM and Dunnett's test was applied for comparison between corresponding time points for each drug-treated and control groups. Differences were considered significant at P<0.05.

[2] = target: T1, membrane-bound guanylyl cyclase; assay: cGMP accumulation after activation of membrane-bound guanylyl cyclase in isolated rat lung membranes; type: biochemical
Protocol: The agonist-like activity of the ANP variant peptides was evaluated by in vitro assays designed to measure cGMP accumulation after activation of membrane-bound guanylyl cyclase. Guanylyl cyclases (GC) are a family of enzymes (EC 4.6.1.2) that catalyse the formation of the second messenger cyclic GMP (cGMP) from GTP. Activation of GCs leads to an increase in the concentration of the intracellular messenger molecule cGMP. GCs are subdivided into soluble GCs and GCs that are membrane-bound and linked to a receptor. Activation occurs through binding of nitric oxide (NO) and peptide hormones, respectively. Six different isoforms of membrane-bound GC (GC-A, GC-B, GC-C, GC-D, GC-E and GC-F) are known. The guanylyl cyclase A (GC-A) isoform acts as the receptor for the natriuretic peptides ANP and BNP.
As ANP is known to stimulate GC-A, the effect of known and variant ANP peptides on guanlyl cyclase was examined. The procedure employed was essentially as described in Glover V, et al., 1995 Life Sci. 57(22): 2073-2079; Nashida T, Imai A and Shimomura H (2000), Mol Cell Biochem. 208(1-2): 27-35. Briefly, membrane-bound guanylyl cyclase isolated from the lung of Wistar rats was used. […] The reaction was terminated by addition of 1 N HCl and the supernatant evaluated for cGMP level by EIA. Enzyme activity was determined spectrophotometrically by measuring the formation of cGMP. […]

[3] = target: T2, membrane-bound guanylyl cyclase …; assay: cell-based or functional assay
[4] = i.v. infusion 1 μg/kg/min × 30 min
[5] = i.v. infusion 3 μg/kg/min × 30 min
[6] = i.v. infusion 1 and 3 μg/kg/min × 30 min

| Molecule | cGMP accumulation, agonist activity in words [2] | heart rate change [1] | absolute change of mean arterial pressure (MAP-infusion minus MAP-baseline) [1, 4] [mmHg] | absolute change of mean arterial pressure (MAP-infusion minus MAP-baseline) [1, 5] [mmHg] | urine volume (diuresis) [1, 5] | cGMP accumulation after activation of membrane-bound guanylyl cyclase (EIA), EC50 [3] [nM] | other results |
| --- | --- | --- | --- | --- | --- | --- | --- |
| CC[C@H](C)[C@@H]1NC(=O)[C@H](CCCNC(=N)N)NC(=O)[C@H](CC(=O)O)NC(=O)[C@H](CCSC)NC(=O)[C@H](CCCNC(=N)N)NC(=O)CNC(=O)CNC(=O)[C@H](Cc2ccccc2)NC(=O)[C@@H](NC(=O)[C@H](CO)NC(=O)[C@H](CO)NC(=O)[C@H](CCCNC(=N)N)NC(=O)[C@H](CCCNC(=N)N)NC(=O)[C@H](CC(C)C)NC(=O)[C@@H](N)CO)CSSC[C@@H](C(=O)N[C@@H](CC(N)=O)C(=O)N[C@@H](CO)C(=O)N[C@@H](Cc2ccccc2)C(=O)N[C@@H](CCCNC(=N)N)C(=O)N[C@@H](Cc2ccc(O)cc2)C(=O)O)NC(=O)CNC(=O)[C@H](CC(C)C)NC(=O)CNC(=O)[C@H](CO)NC(=O)[C@H](CCC(N)=O)NC(=O)[C@H](C)NC(=O)CNC1=O [ANP-28, reference compound] |  |  |  |  |  |  | heart rate change ([1]; listed as ANP28): decrease in heart rate |
| TAPRSLRRSSCFGGRMDRIGAQSGLGCNSFRELNWLRPLMEQPLLSLME (disulfide 11-27) [ANP-49] | level comparable to the known control molecules | decrease in heart rate | −1 | −23 | even higher increase in urine volume relative to Carperitide |  | urine volume (diuresis) [1, 4]: such effect was not observed |
| SLRRSSCFGGRMDRIGAQSGLGCNSFRELNWLRPLMEQPLLSLME (disulfide 7-23) [ANP-45] | level comparable to the known control molecules | decrease in heart rate | −28 | −37 | pronounced diuresis, similar in magnitude to that of Carperitide |  | urinary sodium excretion (natriuresis) [1, 6]: dose-dependent increase in urinary sodium excretion; urine volume (diuresis), dose dependence [1, 6]: dose-dependent increase in urine volume |
| CC[C@H](C)[C@@H]1NC(=O)[C@H](CCCNC(=N)N)NC(=O)[C@H](CC(=O)O)NC(=O)[C@H](CCSC)NC(=O)[C@H](CCCNC(=N)N)NC(=O)CNC(=O)CNC(=O)[C@H](Cc2ccccc2)NC(=O)[C@@H](NC(=O)[C@H](CO)NC(=O)[C@H](CO)NC(=O)[C@H](CCCNC(=N)N)NC(=O)[C@H](CCCNC(=N)N)NC(=O)[C@H](CC(C)C)NC(=O)[C@@H](N)CO)CSSC[C@@H](C(=O)N[C@@H](CC(N)=O)C(=O)N[C@@H](CO)C(=O)N[C@@H](Cc2ccccc2)C(=O)N[C@@H](CCCNC(=N)N)C(=O)N[C@@H](Cc2ccc(O)cc2)C(=O)O)NC(=O)CNC(=O)[C@H](CC(C)C)NC(=O)CNC(=O)[C@H](CO)NC(=O)[C@H](CCC(N)=O)NC(=O)[C@H](C)NC(=O)CNC1=O [Carperitide, reference compound] |  | less pronounced |  |  |  |  |  |
| B1 |  |  |  |  |  | 86.3 |  |
| B2 |  |  |  |  |  | 138 |  |

From US20090035287A1, “ATRIAL NATRIURETIC PEPTIDE (ANP) SPLICE VARIANTS AND METHODS OF USING SAME” (priority 2005, published 2009)
